# Measurements from patent US5399585A, “Carboxamides and sulfonamides compounds which have useful pharmaceutical utility” (Hoffmann-La Roche Inc., priority 1989, dated 1995).
# Target: T1, fibrinogen receptor of blood platelets, glycoprotein IIb/IIIa (Homo sapiens, UniProt P05106+P08514)
# T1 construct: Glycoprotein IIb/IIIa is obtained from Triton X-100 extracts of human blood platelets; from tissue; host or cells: human blood platelets (Triton X-100 extract)
# Test: Inhibition of fibrinogen binding to immobilized glycoprotein IIb/IIIa (ELISA)
# Conditions: purified glycoprotein IIb/IIIa from human blood platelets bound to microtitre plates, read-out: IC50 (concentration of test substance required to inhibit the binding of fibrinogen to the immobilized receptor by 50%)
# Protocol: Glycoprotein IIb/IIIa is obtained from Triton X-100 extracts of human blood platelets and purified by lectin affinity chromatography (Analytical Biochemistry 151, 1985, 169-177) and chromatography on an Arg-Gly-Asp-Ser affinity column (Science 231, 1986, 1559-62). The receptor protein obtained in this way is bound to microtitre plates. The specific binding of fibrinogen to the immobilized receptor is determined using an ELISA system (enzyme-linked immunosorbent assay). The IC50 values hereinafter correspond to that concentration of the test substance required to inhibit the binding of fibrinogen to the immobilized receptor by 50%: […]
# T1 sequence (P08514 32-887 limits assumed): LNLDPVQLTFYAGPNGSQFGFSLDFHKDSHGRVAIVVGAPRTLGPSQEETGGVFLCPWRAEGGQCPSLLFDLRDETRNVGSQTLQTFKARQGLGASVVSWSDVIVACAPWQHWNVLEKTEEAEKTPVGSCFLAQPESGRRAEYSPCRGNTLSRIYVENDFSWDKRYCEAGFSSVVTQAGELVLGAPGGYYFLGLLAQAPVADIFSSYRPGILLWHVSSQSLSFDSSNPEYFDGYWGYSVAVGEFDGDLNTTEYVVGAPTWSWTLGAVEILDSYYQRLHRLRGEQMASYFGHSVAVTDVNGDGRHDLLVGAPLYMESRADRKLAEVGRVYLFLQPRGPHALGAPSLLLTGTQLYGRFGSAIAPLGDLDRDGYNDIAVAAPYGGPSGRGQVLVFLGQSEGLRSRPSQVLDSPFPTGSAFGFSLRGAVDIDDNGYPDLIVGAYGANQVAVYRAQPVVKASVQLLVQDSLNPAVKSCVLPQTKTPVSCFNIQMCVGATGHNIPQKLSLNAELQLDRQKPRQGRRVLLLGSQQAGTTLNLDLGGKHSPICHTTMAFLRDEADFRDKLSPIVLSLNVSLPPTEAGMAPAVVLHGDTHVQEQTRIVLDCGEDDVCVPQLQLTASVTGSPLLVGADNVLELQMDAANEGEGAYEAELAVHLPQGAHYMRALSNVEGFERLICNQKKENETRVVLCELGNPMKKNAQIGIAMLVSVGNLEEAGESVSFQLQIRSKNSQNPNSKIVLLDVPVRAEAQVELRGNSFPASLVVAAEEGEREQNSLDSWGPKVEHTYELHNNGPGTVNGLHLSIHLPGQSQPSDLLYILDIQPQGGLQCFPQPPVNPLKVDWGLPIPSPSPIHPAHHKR
# T1 sequence (P08514 891-1039 limits assumed): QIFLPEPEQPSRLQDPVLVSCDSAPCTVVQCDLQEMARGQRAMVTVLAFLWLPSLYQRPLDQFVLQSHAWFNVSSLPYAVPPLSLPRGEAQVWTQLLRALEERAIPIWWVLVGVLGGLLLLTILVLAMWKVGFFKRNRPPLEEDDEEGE
# T1 sequence (P05106 27-788): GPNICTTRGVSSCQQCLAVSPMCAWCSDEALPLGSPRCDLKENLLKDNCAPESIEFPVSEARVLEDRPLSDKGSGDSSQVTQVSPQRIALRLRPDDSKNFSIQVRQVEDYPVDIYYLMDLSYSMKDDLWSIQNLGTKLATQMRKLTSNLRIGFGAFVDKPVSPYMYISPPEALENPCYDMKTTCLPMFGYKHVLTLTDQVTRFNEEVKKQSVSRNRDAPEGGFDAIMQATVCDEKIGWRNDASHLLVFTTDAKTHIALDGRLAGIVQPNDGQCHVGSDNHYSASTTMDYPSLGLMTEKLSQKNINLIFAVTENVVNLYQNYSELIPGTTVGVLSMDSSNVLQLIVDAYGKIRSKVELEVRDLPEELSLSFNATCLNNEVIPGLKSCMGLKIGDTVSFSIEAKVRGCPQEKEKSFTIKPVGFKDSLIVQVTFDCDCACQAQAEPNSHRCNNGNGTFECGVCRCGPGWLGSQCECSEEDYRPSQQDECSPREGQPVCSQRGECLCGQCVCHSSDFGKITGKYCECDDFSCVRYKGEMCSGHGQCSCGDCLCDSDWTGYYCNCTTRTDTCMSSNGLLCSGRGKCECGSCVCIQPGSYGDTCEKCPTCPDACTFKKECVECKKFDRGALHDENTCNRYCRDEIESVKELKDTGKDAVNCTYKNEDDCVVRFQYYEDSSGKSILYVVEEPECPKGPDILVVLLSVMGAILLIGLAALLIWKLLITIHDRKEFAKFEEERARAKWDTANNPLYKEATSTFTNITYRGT
row,Compound,IC50 [nM]
1,"N=C(N)c1ccc(S(=O)(=O)N(CCc2ccc(OCC(=O)O)cc2)Cc2ccccc2)cc1 [Example 18, p-[2-(p-amidino-N-benzylphenylsulphonamido)ethyl]phenoxyacetic acid]",720
2,"COC(=O)COc1ccc(C(=O)CN(C)C(=O)c2ccc(C(=N)N)cc2)cc1OCC(=O)OC [Example 82, dimethyl [4-(p-amidino-N-methylbenzamido)acetyl-o-phenylenedioxy]diacetate]",8.1
3,"N=C(N)c1ccc(S(=O)(=O)NCC(O)c2ccc(OCC(=O)O)cc2)cc1 (centres unmarked) [Example 20, p-[2-(p-amidinobenzenesulphonamido)-1-hydroxyethyl]phenoxyacetic acid]",470
4,"CN(CC(=O)c1ccc(OCC(=O)O)c(OCC(=O)O)c1)C(=O)c1ccc(C(=N)N)cc1 [Example 83, [4-(p-amidino-N-methylbenzamido)acetyl-o-phenylenedioxy]diacetic acid]",0.07
5,"CC(CC(=O)O)c1ccc(CCNS(=O)(=O)c2ccc(C(=N)N)cc2)cc1 (stereo not drawn) [Example 36, p-[2-(p-amidinophenylsulphonamido)ethyl]-β-methyl-hydrocinnamic acid]",100
6,"N=C(N)c1ccc(S(=O)(=O)NCCOc2ccc(CC(=O)O)cc2)cc1 [Example 10, p-[2-(p-amidinophenylsulphonamido)ethoxy]phenylacetic acid]",640
7,"C[C@H](Cc1ccc([C@H](C)CC(=O)O)s1)NC(=O)c1ccc(C(=N)N)cc1 (racemic) [Example 40, (RS)-5-[(RS)-2-(p-amidinobenzamido)propyl]-β-methyl-2-thiophene-propionic acid]",40
8,"N=C(N)c1ccc(S(=O)(=O)NCCCc2ccc(CC(=O)O)cc2)cc1 [Example 46, p-[3-(p-amidinophenylsulphonamido)propyl]phenylacetic acid]",300

# Continued, values first:
row,IC50 [nM],Compound
1,970,"N=C(N)c1ccc(CC(=O)NCc2ccc(OCC(=O)O)cc2)cc1 [Example 78, p-[2-(p-amidinophenyl)acetamido]-p-tolyloxyacetic acid]"
2,30,N=C(N)c1ccc(C(=O)NCCc2ccc(OCC(=O)O)cc2)cn1 [Example 48]
3,40,"N=C(N)c1ccc(C(=O)NCCc2ccc(OCC(=O)O)cc2)cc1 [Example 2, p-[2-(amidinobenzamido)ethyl]phenoxyaceticacid]"
4,100,"N=C(N)c1ccc(S(=O)(=O)NCCc2ccc(OCC(=O)O)cc2)cc1 [Example 12, p-[2-(p-amidinobenzenesulphonamido)ethyl]phenoxyacetic acid]"
5,370,"COC(=O)COc1ccc(CCNC(=O)c2ccc(C(=N)N)cc2)cc1 [Example 1, Methyl p-[2-(p-amidinobenzamido)ethyl]phenoxyacetate]"
6,80,"N=C(N)c1ccc(C(=O)N[C@@H](CO)Cc2ccc(OCC(=O)O)cc2)cc1 [Example 81, p-[(R)-2-(p-amidinobenzamido)-3-hydroxypropyl)phenoxyacetic acid]"
